Assay [1] has as its system HUVEC. Put plainly: Inhibition of VEGF-stimulated angiogenesis in HUVECs. The conditions noted are these: Homo sapiens. The class given is functional, cell-based.
The subject of assay [2] is HUVEC. Put plainly: Inhibition of VEGF-stimulated angiogenesis in HUVECs at 1 uM relative to control. It counts as functional. Particulars: Homo sapiens.

These results are taken from ChEMBL document CHEMBL1146389, “Synthesis and evaluation of prodrugs for anti-angiogenic pyrrolylmethylidenyl oxindoles” (2007).

Regarding `Cc1cc(C)c(/C=C2\C(=O)N(Cc3ccc([N+](=O)[O-])cc3)c3ccccc32)[nH]1`, the Activity result in assay [1] is “Dose-dependent effect”. What is called inhibition is the share of the control response that was lost under treatment. Take `Cc1cc(C)c(/C=C2\C(=O)Nc3ccccc32)[nH]1` [SEMAXANIB]: the inhibition at 1 µM in assay [2] was 94%.
